By Kb is commonly meant the equilibrium dissociation constant of an antagonist, usually derived from a functional assay. Read a low Kb as a more potent antagonist. The term ED50 denotes the dose at which the effect has come halfway, by size or by number of responders.

The target of one data set is T1, leukotriene D4 (Cavia porcellus, UniProt Q2NNR5).
T1 construct: tracheas were isolated from male Hartley guinea-pigs, and spiral specimens of approximately 2 cm length were prepared; from tissue; host or cells: isolated guinea-pig trachea (spiral strips)
T1 sequence (Q2NNR5 1-340): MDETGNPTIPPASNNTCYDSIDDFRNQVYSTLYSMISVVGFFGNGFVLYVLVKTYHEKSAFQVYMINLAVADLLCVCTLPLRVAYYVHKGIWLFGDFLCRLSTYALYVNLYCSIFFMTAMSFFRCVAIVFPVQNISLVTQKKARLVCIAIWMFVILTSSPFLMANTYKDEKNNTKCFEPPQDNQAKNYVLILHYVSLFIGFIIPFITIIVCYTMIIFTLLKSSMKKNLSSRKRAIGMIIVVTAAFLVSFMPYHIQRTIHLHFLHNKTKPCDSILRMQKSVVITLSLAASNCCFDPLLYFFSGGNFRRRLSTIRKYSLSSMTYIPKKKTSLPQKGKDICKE
The data set can be described thus: Leukotriene D4 antagonistic effect (isolated trachea, leukotriene D4 concentration-response curves, Schild). Details: species or system male Hartley guinea-pigs. The conditions noted are these: isolated guinea-pig trachea, contraction by leukotriene D4, test compound treatment 30 minutes, indomethacin 1 × 10^-6M, method of Schild. Here is the method: According to an ordinary method, tracheas were isolated from male Hartley guinea-pigs, and spiral specimens of approximately 2 cm length were prepared. These specimens were suspended isotonically in organ baths that contained Krebs-Henseleit solution at 37°C under a resting tension of 0.5g. After contractions with acetylcholine (1 × 10^-5M; Ovisot for injection, Daiichi Seiyaku), and the first concentration-response curves were obtained by cumulative applications of 10^-10 to 10^-8M of leukotriene D4 (ULTRA FINE) in the organ baths. After treatments with test compounds at adequate concentrations for 30 minutes, the second concentration-response curves were obtained in the same manner as the first applications. pKB values were calculated using these two concentration-response curves according to the method of Schild [Pharmacological Review, Vol. 9, 242 (1957)]. Indomethacin (1 × 10^-6M, Sigma) was added beforehand to the organ bath to eliminate possible affections by thromboxane A2 and prostaglandin produced by stimulus of leukotriene D4 [Japan J. Pharmacol., Vol. 60, 227 (1992)]. […]

The target in data set [1] is T2, thromboxane A2 / prostaglandin H2 receptor (Cavia porcellus, UniProt A0A286Y4I8).
T2 construct: tracheas were isolated from male Hartley guinea-pigs, and spiral specimens of approximately 2 cm length were prepared; from tissue; host or cells: isolated guinea-pig trachea (spiral strips)
T2 sequence (A0A286Y4I8 1-347): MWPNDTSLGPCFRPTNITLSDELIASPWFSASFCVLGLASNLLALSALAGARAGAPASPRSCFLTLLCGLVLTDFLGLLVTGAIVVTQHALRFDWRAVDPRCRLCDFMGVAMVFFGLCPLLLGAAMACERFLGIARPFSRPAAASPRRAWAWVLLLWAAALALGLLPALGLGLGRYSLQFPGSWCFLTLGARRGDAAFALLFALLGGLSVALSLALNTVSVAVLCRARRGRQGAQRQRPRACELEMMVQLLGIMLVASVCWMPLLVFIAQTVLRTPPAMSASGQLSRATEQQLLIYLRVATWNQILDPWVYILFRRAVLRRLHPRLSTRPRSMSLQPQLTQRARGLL
The data set can be described thus: Thromboxane A2 antagonistic effect (isolated trachea, U-46619 concentration-response curves, Schild). Further details: species or system male Hartley guinea-pigs. The settings on record: isolated guinea-pig trachea, contraction by U-46619, test compound treatment 5 minutes, indomethacin 3 × 10^-6M, method of Schild. Here is the method:
According to an ordinary method, tracheas were isolated from male Hartley guinea-pigs, and spiral specimens of approximately 2 cm length were prepared. These specimens were suspended in organ baths that contained Krebs-Henseleit solution at 37°C under a resting tension of 1.5 g, and the changes in isometric tension were recorded. The first concentration-response curves were obtained by cumulative applications of 1 × 10^-9 to 3 × 10^-7M of U-46619 (Cayman, thromboxane A2 / prostaglandin H2 receptor agonist) in the organ baths. After treatments with test compounds at adequate concentrations for 5 minutes, the second concentration-response curves were obtained in the same manner as the first applications. pKB values were calculated using these two concentration-response curves according to the method of Schild [Pharmacological Review, Vol. 9, 242 (1957)]. Indomethacin (3 × 10^-6M, Sigma) was added beforehand to the organ bath to eliminate possible affections by thromboxane A2 and prostaglandin produced endogenously [Japan J. Pharmacol., Vol. 60, 227 (1992)].

For data set [2], the system named is bronchoconstriction induced by leukotriene D4. The data set can be described thus: Inhibitory effect on bronchoconstriction induced by leukotriene D4 (Konzett-Roessler). Type of data set: in vivo, Male Hartley guinea-pigs. The conditions noted are these: Cavia porcellus; oral administration 2 hours before leukotriene D4 (1 µg/kg, cervical vein), anesthetized guinea-pigs, indomethacin and propranolol pretreated. On the procedure:
Airway resistance was evaluated according to the method of Konzett-Roessler [Naunyn-Schmiedberg's Arch. Exp. Path. Pharmak., Vol. 195, 71 (1940)]. Male Hartley guinea-pigs fasted beforehand for 24 hours were anesthetized with urethane, and then overflowed air volume was measured under artificial ventilation as an index of bronchoconstriction. Various doses of test compounds suspended in 5% gum Arabic were administered orally, and after 2 hours, leukotriene D4 (1 µg/kg; ULTRA FINE) was administered through the cervical vein. Then, values at 2 minutes were measured when maximum responses were obtained. Inhibitory rates compared to the control group were calculated based on the response rate normalized by the overflowed volume at complete closure as 100% bronchoconstriction rate, and the 50% inhibitory doses (ED50 values) were calculated using dose-inhibitory rate curves. Indomethacin (2mg/kg, i.v.) and propranolol (1mg/kg, i.v.) were administered at 10 minutes and 5 minutes before the administration of leukotriene D4, respectively. […]

A further data set has as its system human liver microsomes. The data set can be described thus: In vitro metabolism test. The data set is classed as in vitro ADME. The conditions noted are these: 0.4mg protein/ml human liver microsomes, 0.02 mM test compound, NADPH-generating system, 37°C for 30 minutes, HPLC. Here is the method:
0.05 mM EDTA-0.1M phosphate buffer (pH 7.4), distilled water, 0.4mg protein/ml human liver microsomes and 0.02 mM test compound were mixed in a test tube under ice-cooling. After the mixture was shaken at 37°C for 2 minutes beforehand, the mixture was added with a ready-mix of NADPH-generating system and then shaken at 37°C for 30 minutes. After the incubation, the reaction was stopped by cooling with ice. The mixture was added with acetonitrile and well mixted, and then centrifuged at 3000 rpm for 10 minutes. The resulting supernatant was subjected to HPLC measurement, and the residual rate of test compound was calculated from the ratio of a peak area of an unchanged compound in the reaction sample in comparison with a non-reaction mixture. Preparations of reagents and reaction mixtures were carried out by referring to Shin Seikagaku Koza, Vol. 5: Biological oxidation and drug metabolism edited by The Japanese Biochemical Society. […]
(In general: Liver microsomes are vesicles of endoplasmic reticulum, rich in cytochrome P450 enzymes.)

Data set [3] concerns bronchoconstriction induced by U-46619. The data set can be described thus: Inhibitory effect on bronchoconstriction induced by U-46619 (Konzett-Roessler). The data set is classed as in vivo, Male Hartley guinea-pigs. The settings on record: Cavia porcellus; 0.3 mg/kg orally, 2 hours before U-46619 (4 µg/kg, cervical vein), anesthetized guinea-pigs, compared to control group; read-out: Inhibition rate (%). Here is the method: Airway resistance was evaluated according to the method of Konzett-Roessler [Naunyn-Schmiedberg's Arch. Exp. Path. Pharmak., Vol. 195, 71 (1940)]. Male Hartley guinea-pigs (about 400g wt.) were anesthetized with urethane (1.5g/kg, i.p.) and ventilated by an artificial respirator (Model 683; Harvard). At the same time, overflowed air volume above the pressure of about 12cm H2O was measured by using a sensor (Model 7020; Ugo Basile) and the value was used as an index of bronchoconstriction. 0.3 mg/kg (5 ml/kg) of test compounds suspended in 5% gum Arabic was administered orally to the guinea-pigs fasted beforehand for 24 hours. After 2 hours, U-46619 (4 µg/kg; Cayman) was administered through the cervical vein, and then maximal response was measured. Inhibitory rates compared to the control group were calculated based on the response rate normalized by the complete closure as 100%. […]

`O=C(O)CCCc1ccc(C(CCCC(F)(F)C(F)(F)F)NS(=O)(=O)c2ccc(Cl)cc2)s1` (stereo not shown) [Example 162, 4-[5-[1-(4-Chlorophenylsulfonylamino)-5,5,6,6,6-pentafluorohexyl]-2-thienyl]butyric Acid]: the figures for the antagonist equilibrium constant (Kb) (at leukotriene D4; in data set [1]) were 0.251 µM and 0.000398 µM, respectively. Besides, the ED50 in data set [2] came to 1.3 mg/kg. The “Residual rate (%)” value in the data set on human liver microsomes was found to be 72%. Also, in data set [3], the inhibition in vivo at 0.3 mg/kg was determined as 85%.
The like results for `CC(C)CCCC(NS(=O)(=O)c1ccc(Cl)cc1)c1ccc(CCCC(=O)O)cc1` (stereo not shown) [Reference compound 2, 4-[4-[1-(4-chlorophenylsulfonylamino)-5-methylhexyl]phenyl]butyric acid, reference compound] were, in that order, 0.251 µM, 0.00126 µM, 9.2 mg/kg, 50% and 81%.
As to `O=C(O)CCCc1ccc(C(CCC(F)(F)C(F)(F)C(F)(F)C(F)(F)F)NS(=O)(=O)c2ccc(F)cc2)s1` (stereo not shown) [Example 179, 4-[5-[4,4,5,5,6,6,7,7,7-Nonafluoro-1-(4-fluorophenylsulfonylamino)heptyl]-2-thienyl]butyric Acid], the Kb on leukotriene D4 was 0.1 µM; in data set [1] it was 0.00794 µM. In addition, in data set [2], the ED50 came to 0.17 mg/kg. Moreover, the “Residual rate (%)” value in the data set on human liver microsomes came to 78%. The inhibition in vivo at 0.3 mg/kg in data set [3] came out at 93%.
Take `O=C(O)CCCc1ccc(C(CCC(F)(F)C(F)(F)C(F)(F)F)NS(=O)(=O)c2ccc(F)cc2)cc1` (stereo not shown) [Example 200, 4-[4-[4,4,5,5,6,6,6-Heptafluoro-1-(4-fluorophenylsulfonylamino)hexyl]phenyl]butyric Acid]: the Kb at leukotriene D4 is 0.251 µM; in data set [1], 0.01 µM. Besides, in data set [2], the ED50 was 0.21 mg/kg. Also, the “Residual rate (%)” value in the data set on human liver microsomes stood at 83%. Further, in data set [3], the inhibition in vivo at 0.3 mg/kg is 82%.
With `O=C(O)CCCc1ccc(C(CCCC(F)(F)C(F)(F)F)NS(=O)(=O)c2ccc(F)cc2)s1` (stereo not shown) [Example 163, 4-[5-[5,5,6,6,6-Pentafluoro-1-(4-fluorophenylsulfonylamino)hexyl]-2-thienyl]butyric Acid], the Kb at leukotriene D4 was 0.398 µM; in data set [1], 0.000794 µM. Moreover, in data set [2], the ED50 was found to be 0.78 mg/kg. Further, in the data set with human liver microsomes, the “Residual rate (%)” value was found to be 87%. The inhibition in vivo at 0.3 mg/kg in data set [3] was 92%.
The like results for `O=C(O)CCCc1ccc(C(CCCC(F)(F)C(F)(F)C(F)(F)F)NS(=O)(=O)c2ccc(F)cc2)cc1` (stereo not shown) [Example 202, 4-[4-[5,5,6,6,7,7,7-Heptafluoro-1-(4-fluorophenylsulfonylamino)heptyl]phenyl]butyric Acid] were, in that order, 0.794 µM, 0.0126 µM, 0.97 mg/kg, 93% and 85%.
For `O=C(O)CCCc1ccc(C(CCCCCC(F)(F)F)NS(=O)(=O)c2ccc(F)cc2)s1` (stereo not shown) [Example 172, 4-[5-[7,7,7-Trifluoro-1-(4-fluorophenylsulfonylamino)heptyl]-2-thienyl]butyric Acid], the Kb was 0.251 µM at leukotriene D4 and 0.000398 µM in data set [1]. For the same compound, in data set [2], the ED50 amounted to 2.4 mg/kg. Moreover, the “Residual rate (%)” value with human liver microsomes is on record as 84%. For the same compound, the inhibition in vivo at 0.3 mg/kg in data set [3] was determined as 73%.
The like results for `O=C(O)CCCc1ccc(C(CCCC(F)(F)C(F)(F)C(F)(F)F)NS(=O)(=O)c2ccc(F)cc2)s1` (stereo not shown) [Example 178, 4-[5-[5,5,6,6,7,7,7-Heptafluoro-1-(4-fluorophenylsulfonylamino)heptyl]-2-thienyl]butyric Acid] were, in that order, 0.398 µM, 0.00316 µM, 0.67 mg/kg, 84% and 89%.
The like results for `CCCCCC(NS(=O)(=O)c1ccc(Cl)cc1)c1ccc(CCCC(=O)O)cc1` (stereo not shown) [Reference compound 1, 4-[4-[1-(4-Chlorophenylsulfonylamino)hexyl]phenyl]butyric acid, reference compound] were, in that order, 0.2 µM, 0.001 µM, 8.1 mg/kg, 53% and 85%.
The like results for `O=C(O)CCCc1ccc(C(CCCC(F)(F)C(F)(F)C(F)(F)F)NS(=O)(=O)c2ccc(Cl)cc2)s1` (stereo not shown) [Example 177, 4-[5-[1-(4-Chlorophenylsulfonylamino)-5,5,6,6,7,7,7-heptafluoroheptyl]-2-thienyl]butyric Acid] were, in that order, 0.398 µM, 0.00631 µM, 0.69 mg/kg, 87% and 93%.
Turning to `O=C(O)CCCc1ccc(C(CCC(F)(F)C(F)(F)C(F)(F)F)NS(=O)(=O)c2ccc(F)cc2)s1` (stereo not shown) [Example 176, 4-[5-[4,4,5,5,6,6,6-Heptafluoro-1-(4-fluorophenylsulfonylamino)hexyl]-2-thienyl]butyric Acid], the results for the Kb (on leukotriene D4; in data set [1]) were 0.126 µM and 0.00316 µM, respectively. Also, in data set [2], the ED50 was determined as 0.14 mg/kg. For the same compound, the “Residual rate (%)” value in the data set with human liver microsomes is on record as 86%. Besides, the inhibition in vivo at 0.3 mg/kg in data set [3] is 78%.

The record behind these values is patent EP0943606A1, “BENZENESULFONAMIDE DERIVATIVES AND DRUGS CONTAINING THE SAME” (HOKURIKU SEIYAKU CO., LTD., priority 1996, dated 1998).
